{
  "source": "patent US20220370534A1",
  "about": "“EXTERNAL COMPOSITION FOR SKIN HAVING ITCHING RELIEVING EFFECT” (YANGSHENGTANG (ANJI) COSMETICS CO., LTD., priority 2019, published 2022)",
  "system": "mast cells",
  "experiment": "Release of interleukin-4 (IL-4) from mast cells stimulated with Compound 48/80",
  "assay_type": "cell-based",
  "conditions": "sample 4 h, then Compound 48/80 20 mg/L 2 h, 8 duplicate wells, model group 67.6 ± 9.9, control group 34.4 ± 7.9",
  "method": "According to the following test method, the effects of the […] samples A-E as prepared above on the release of IL-4 from mast cells were tested.\nExperimental principle: The specific antigen is crosslinked with the IgE antibody bound to the cell membrane, resulting in cell activation and rapid secretion of inflammatory mediators related to granulation (histamine, IL-4, IL-13, etc.). […] In this study, Compound 48/80 was used to stimulate mast cells to degranulate and release the inflammatory mediator IL-4 to investigate the protective efficacy of the test samples on the allergic reaction of mast cells.\nExperimental materials: Mast cells were provided by the Animal Center of Zhejiang Academy of Medical Sciences. […]\nExperimental method: Each of samples was prepared using RPMI1640 medium, and each of samples was provided with 8 duplicate wells. Mast cells were inoculated into a 96-well culture plate at a density of 5×10^6/mL, 90 μL per well, and added with 10 μL/well of a corresponding sample; cultured in a 5% CO2 incubator at 37° C., and taken out after 4 h; in addition to the control group, the other groups were added with a stimulus 48/80 (final concentration 20 mg/L), and continued to incubate in an incubator at 37° C. for 2 h, and then centrifuged at 1500 rpm for 5 mins to get the supernatant, and the content of IL-4 in the supernatant was detected by Elisa (interleukin-4) kit.",
  "data": [
    {"smiles": "O=C(O)c1cc(=O)c2c(OCC(O)COc3cccc4oc(C(=O)O)cc(=O)c34)cccc2o1", "note": "[Positive drug, sodium cromoglycate]", "values": [
      {"measurement": "Release % (IL-4 release from cell models)", "value": "44.2 ± 12.3", "unit": "%"}
    ]}
  ]
}
